In patent publication US20230339939A1 (Bayer Aktiengesellschaft, priority 2020, published 2023) one finds IC50 data, which are given here for 3 compounds.

In one test the target is CSNK1A1 (Homo sapiens (Human), UniProt P48729). Kind of test: CSNK1A1 Assay 2 (ADP-Glo, 1 μM ATP, substrate biotin-Ahx-KRRRAL-pS-VASLPGL). It is filed as biochemical. The conditions noted are these: median, read-out: CSNK1A1 Assay 2 IC50 [mol/l] (median). In a few lines: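 GST-tagged full-length human CSNK1A1 from baculovirus-infected insect cells (about 0.0375 ng/μL), preincubated 15 min at 22 °C with compound in HEPES pH 7.5 buffer, with 1 μM ATP and biotin-Ahx-KRRRAL-pS-VASLPGL substrate. ADP formed read by ADP-Glo luminescence.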

In another test the target is CSNK1D (Homo sapiens (Human), UniProt P48730). Kind of test: CSNK1D Assay (ADP-Glo, 1 μM ATP). It is filed as biochemical. The conditions noted are these: median, read-out: CSNK1D IC50 [mol/l] (median). Summed up:
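Enzyme is N-terminal GST-tagged full-length human CSNK1D from baculovirus-infected insect cells (typically about 0.5 ng/μL), with a biotinylated peptide substrate and 1 μM ATP. Compound pre-incubated 15 min at 22° C in HEPES pH 7.5 buffer; ADP formed is read by ADP-Glo luminescence.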

Sequence of CSNK1A1 (P48729 whole entry): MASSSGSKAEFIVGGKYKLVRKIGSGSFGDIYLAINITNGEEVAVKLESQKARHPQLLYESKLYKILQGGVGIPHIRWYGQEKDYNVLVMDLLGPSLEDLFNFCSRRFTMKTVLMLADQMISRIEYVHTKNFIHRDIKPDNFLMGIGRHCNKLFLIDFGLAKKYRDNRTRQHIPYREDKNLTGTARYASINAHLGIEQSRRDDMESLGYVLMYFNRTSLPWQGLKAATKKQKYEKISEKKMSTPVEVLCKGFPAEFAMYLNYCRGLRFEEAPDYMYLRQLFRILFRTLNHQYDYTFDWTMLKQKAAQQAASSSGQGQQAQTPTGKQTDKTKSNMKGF
Sequence of CSNK1D (P48730 whole entry): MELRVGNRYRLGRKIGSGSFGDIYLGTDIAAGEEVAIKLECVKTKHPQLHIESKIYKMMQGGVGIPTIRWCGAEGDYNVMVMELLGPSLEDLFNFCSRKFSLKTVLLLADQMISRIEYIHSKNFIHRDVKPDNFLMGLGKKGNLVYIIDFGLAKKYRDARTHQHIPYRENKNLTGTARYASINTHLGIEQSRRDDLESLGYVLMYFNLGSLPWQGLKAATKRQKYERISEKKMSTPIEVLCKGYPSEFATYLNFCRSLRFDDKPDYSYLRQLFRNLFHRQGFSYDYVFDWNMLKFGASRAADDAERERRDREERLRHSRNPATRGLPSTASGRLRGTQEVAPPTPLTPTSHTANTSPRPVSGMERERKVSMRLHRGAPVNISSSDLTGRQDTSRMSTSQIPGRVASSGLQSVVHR

For the compound `O=C(Cc1ccccc1)Nc1cc(-c2[nH]c3cccnc3c2-c2ccccn2)ccn1` [Example 46, 2-phenyl-N-(4-(3-(pyridin-2-yl)-1H-pyrrolo[3,2-b]pyridin-2-yl)pyridin-2-yl)acetamide], the results for the IC50 at CSNK1A1 and at CSNK1D were 2.25 nM and 5.77 nM, respectively.

For `O=C(Cc1ccc(F)cc1)Nc1cc(-c2[nH]c3cccnc3c2-c2ncccn2)ccn1` [Example 51, 2-(4-fluorophenyl)-N-{4-[3-(pyrimidin-2-yl)-1H-pyrrolo[3,2-b]pyridin-2-yl]pyridin-2-yl}acetamide], the IC50 turned out to be 7.93 nM on CSNK1A1 and 20 nM at CSNK1D.

Regarding `CC(C(=O)Nc1cc(-c2[nH]c3cc(Cl)cnc3c2-c2ccccn2)ccn1)c1ccc(F)cc1` (stereo not drawn) [Example 52, N-{4-[6-chloro-3-(pyridin-2-yl)-1H-pyrrolo[3,2-b]pyridin-2-yl]pyridin-2-yl}-2-(4-fluorophenyl)propanamide], the IC50 on CSNK1A1 is 6.26 nM; on CSNK1D, 20.5 nM.
